Seven molecules from ChEMBL document CHEMBL1201862, “PubChem BioAssay data set” (2004) can be followed below.

Each structure is given as a SMILES string.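 Briefly, cells in 96-well plates were exposed to five compound concentrations for 48 h, and endpoints were estimated by linear interpolation. Abbreviation: GI50, concentration required for 50% inhibition of growth.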 Calls of active or inactive are those of the source. Cut-off read from the data, not from the text of the source: active = GI50 up to about 1.1 µM and inactive = higher.

Assay in all cases: DTP human tumour cell line panel, 48 h
In experiment [1] the test system is A498.
Experiment [2] relates to MOLT-4.
The subject of experiment [3] is 786-0.
The test system of experiment [4] is CCRF-CEM.
Experiment [5] concerns A549.
For experiment [6], the system named is M14.
In experiment [7] the test system is HT-29.
Experiment [8] relates to HCT-15.
The test system of experiment [9] is SK-MEL-2.
The subject of experiment [10] is MDA-MB-435.
In experiment [11] the test system is SK-MEL-5.
The test system of experiment [12] is EKVX.
Experiment [13] concerns Hs-578T.
The test system of experiment [14] is BT-549.
Experiment [15] has as its system SR.
For experiment [16], the system named is Malme-3M.
Experiment [17] concerns OVCAR-3.
The test system of experiment [18] is HCT-116.
Experiment [19] has as its system NCI-H23.
In experiment [20] the test system is LOX IMVI.

Turning to `COc1cc(C[S+]([O-])c2ccc(O)cc2)cc(OC)c1OC` (stereo not given), the GI50 in experiment [1], in experiment [2], in experiment [3], in [4], in experiment [5] and in [6] was > 100 µM (inactive) in each case. In addition, the GI50 – broadly, the concentration at which growth is held to half of that of the control – was > 100 µM (inactive) in experiment [7]; above 100 µM in experiment [8]; > 100 µM (inactive) in experiment [9]; > 100 µM (inactive) in experiment [10]; > 100 µM (inactive) in [11]; > 100 µM (inactive) in experiment [12]. In addition, the GI50 in experiment [13], in [14], in experiment [15], in [16], in [17] and in experiment [18] was > 100 µM (inactive) each time. Moreover, the GI50 in experiment [19] and in [20] was > 100 µM (inactive) each time.
For the molecule `O=C(O)C(F)(OC(F)(F)C(F)(OC(F)(F)C(F)(F)C(F)(F)F)C(F)(F)F)C(F)(F)F` (stereo not given), the GI50 in experiment [1], in experiment [2], in experiment [3], in experiment [4], in experiment [5] and in experiment [6] was > 100 µM (inactive) each time. Also, the GI50 in experiment [7] was > 100 µM (inactive); in experiment [8] it was above 100 µM; in [9], > 100 µM (inactive); in experiment [10] it was > 100 µM (inactive); in experiment [11], > 100 µM (inactive); in experiment [12], > 100 µM (inactive). Moreover, the GI50 in experiment [13], in experiment [14], in experiment [15], in experiment [16], in experiment [17] and in experiment [18] was > 100 µM (inactive) in each case. Also, the GI50 in [19] and in [20] was > 100 µM (inactive) each time.
Consider `CC1=NNC(=S)NCCCN2CCN(CCCNC(=S)NN=C(C)C=NNC(=S)NCCCN3CCN(CCCNC(=S)NN=C1)CC3)CC2`, for which the GI50 in experiment [1], in experiment [2], in experiment [3], in [4], in experiment [5] and in experiment [6] was > 100 µM (inactive) in each case. In addition, the GI50 in experiment [7] was > 100 µM (inactive); in experiment [8], above 100 µM; in experiment [9], > 100 µM (inactive); in experiment [10], > 100 µM (inactive); in [11] it was > 100 µM (inactive); in experiment [12], > 100 µM (inactive). For the same molecule, the GI50 in experiment [13], in experiment [14], in [15], in experiment [16], in [17] and in experiment [18] was > 100 µM (inactive) each time. Moreover, the GI50 in experiment [19] and in experiment [20] was > 100 µM (inactive) in each case.
`O=C(Nc1nc2ccccc2s1)c1cc([N+](=O)[O-])ccc1Cl`: the GI50 is > 81.7 µM (inactive) in [1]; 2.81 µM (inactive) in experiment [2]; 11.1 µM (inactive) in experiment [3]; 0.0107 µM (active) in experiment [4]; 6.17 µM (inactive) in experiment [5]; 8.97 µM (inactive) in experiment [6]. Also, the GI50 in [7] is 5.47 µM (inactive); in [8], 4.63 µM; in experiment [9], 13.2 µM (inactive); in experiment [10], 3.13 µM (inactive); in experiment [11] it was 7.6 µM (inactive); in [12] it was 10.1 µM (inactive). The GI50 is 2.88 µM (inactive) in [13]; 5.92 µM (inactive) in experiment [14]; 1.54 µM (inactive) in experiment [15]; 23.7 µM (inactive) in experiment [16]; 16.7 µM (inactive) in [17]; 3.87 µM (inactive) in [18]. Further, the GI50 in experiment [19] is 4.91 µM (inactive); in experiment [20], 3.44 µM (inactive).
On to `O=C1Nc2c(Cl)cc(Cl)cc2/C1=N/N=C/c1ccccc1O`, for which the GI50 is 18.7 µM (inactive) in experiment [1]; 20.7 µM (inactive) in [2]; 19.4 µM (inactive) in experiment [3]; 21.5 µM (inactive) in [4]; 29.2 µM (inactive) in [5]; 23.1 µM (inactive) in experiment [6]. The GI50 in experiment [7] is 20.4 µM (inactive); in experiment [8], 17.8 µM; in [9], 19.5 µM (inactive); in experiment [10], 21.7 µM (inactive); in experiment [11], 20.4 µM (inactive); in [12], 11.5 µM (inactive). For the same molecule, the GI50 in [13] is 26.5 µM (inactive); in experiment [14], 15.1 µM (inactive); in experiment [15], 16.3 µM (inactive); in experiment [16], 27.9 µM (inactive); in experiment [17], 16.3 µM (inactive); in [18], 17.5 µM (inactive). Besides, the GI50 in experiment [19] is 19.5 µM (inactive); in [20] it was 16.3 µM (inactive).
With `CC1(C)OCC(C2OC3OC(C)(C)OC3C2N)O1` (stereo not given), the GI50 in [1], in experiment [2], in [3], in experiment [4], in experiment [5] and in experiment [6] was > 100 µM (inactive) throughout. Besides, the GI50 was > 100 µM (inactive) in experiment [7]; above 100 µM in experiment [8]; > 100 µM (inactive) in experiment [9]; > 100 µM (inactive) in experiment [10]; > 100 µM (inactive) in experiment [11]; > 100 µM (inactive) in experiment [12]. Further, the GI50 in [13], in [14], in experiment [15], in experiment [16], in experiment [17] and in [18] was > 100 µM (inactive) throughout. Moreover, the GI50 in experiment [19] and in experiment [20] was > 100 µM (inactive) in each case.
Take `Cc1ccc(/N=N/c2c(O)ccc3ccccc23)cc1`: the GI50 in [1] is > 100 µM (inactive); in [2], 46.8 µM (inactive); in experiment [3], > 100 µM (inactive); in experiment [4], 27.1 µM (inactive); in experiment [5], > 100 µM (inactive); in experiment [6], > 100 µM (inactive). Moreover, the GI50 in experiment [7] is > 100 µM (inactive); in [8], 64 µM; in experiment [9], > 100 µM (inactive); in experiment [10] it was > 100 µM (inactive); in experiment [11], > 100 µM (inactive); in experiment [12], > 100 µM (inactive). Also, the GI50 in experiment [13] was > 100 µM (inactive); in [14], > 100 µM (inactive); in [15], 11.7 µM (inactive); in [16], > 100 µM (inactive); in experiment [17], 32.4 µM (inactive); in experiment [18], > 100 µM (inactive). Besides, the GI50 in experiment [19] and in experiment [20] was > 100 µM (inactive) in each case.
